SMILES strings stand for the structures. Values joined by “and” are separate entries in the source; they are usually repeats but may differ in a detail not shown here. Equal entries are not always repeated. Structures can show the parent of a compound that is named as a salt. Square brackets hold non-standard residues; d marks the D form. Peptide text beside a SMILES is read from it. * marks the point of attachment. X2 = CC(C)[C@@H](C(=O)*)N(C)CCCCCCN1C(=O)CC(SC[C@H](N)C(=O)O)C1=O; X3 = CC(C)[C@@H](C(=O)*)N(C)CCOCCOCCOCCC(=O)NCCCC[C@H](N)C(=O)O; X4 = C[C@@H](O)[C@@H](C(=O)*)N(C)CCCCCC(=O)NCCCC[C@H](N)C(=O)O; X1 = CC(C)[C@@H](C(=O)*)N(C)CCCCCC(=O)NCCCC[C@H](N)C(=O)O; Dolaproine = CO[C@@H]([C@@H]1CCCN1)[C@@H](C)C(=O)O; Dil = CC[C@H](C)[C@H](NC)[C@@H](CC(=O)O)OC; Oxazinan2yl(1,2) = C1CCN(*)OC1

In data set [1] the test system is tubulin. In words: Fluorescence-based microtubule (tubulin) polymerization assay. Format: biochemical. Here is the method: Tubulin polymerization was investigated using the “Fluorescence-based Microtubule Polymerisation Assay Kit” from Cytoskeleton (Denver, Colo., USA; order number: BK011). With this assay, GTP is added to unpolymerized tubulin, allowing polymerization to take place spontaneously. The assay is based on the binding of the fluorophore 4′,6-di-amidino-2-phenylindole (DAPI) to tubulin. Free and bound DAPI can be differentiated on the basis of different emission spectra.
[…] In addition to the buffer control, paclitaxel, with a polymerization-increasing effect, and vinblastin, with a polymerization inhibiting effect, were run additionally as assay controls. Measurement was carried out using 96-well plates with a half base area. The kinetics of the tubulin polymerization were monitored in a Fluorimeter at 37° C. for 1 hour. The excitation wavelength was 355 nm, and emission was monitored at 460 nm. For the region of linear increase within the first 10 minutes, a calculation was made of the change in fluorescence per minute (ΔF/min), which represents the polymerization rate of the microtubuli. The potency of the test substances was quantified on the basis of their respective reduction of the polymerization rate.

Data set [2] can be described thus: Caco-2 flux assay for cell permeability. Format: in vitro ADME. Conditions: human, Caco-2 cells, basal to apical. Here is the method:
The cell permeability of a substance can be investigated by means of in vitro testing in a flux assay using Caco-2 cells [M. D. Troutman and D. R. Thakker, Pharm. Res. 20 (8), 1210-1224 (2003)]. For this purpose, the cells were cultured for 15-16 days on 24-well filter plates. For the determination of permeation, the respective working example was applied in a HEPES buffer to the cells either apically (A) or basally (B) and incubated for 2 hours. After 0 hours and after 2 hours, samples were taken from the cis and trans compartments. The samples were separated by HPLC (Agilent 1200, Böblingen, Germany) using reverse phase columns. The HPLC system was coupled via a Turbo Ion Spray Interface to a Triple Quadropol mass spectrometer API 4000 (Applied Biosystems Applera, Darmstadt, Germany). The permeability was evaluated on the basis of a Papp value, which was calculated using the formula published by Schwab et al. [D. Schwab et al., J. Med. Chem. 46, 1716-1725 (2003)].
On the technique in general: Caco-2 cells form a polarised layer with tight junctions and transporters.

The target in data set [3] is T1, P-glycoprotein (P-gp, ABCB1) (Homo sapiens, UniProt P08183).
T1 construct: expressed in transfected cells; host or cells: LLC-PK1 (pig kidney) cells transfected with human MDR1 (L-MDR1 cells)
T1 sequence (P08183 whole entry): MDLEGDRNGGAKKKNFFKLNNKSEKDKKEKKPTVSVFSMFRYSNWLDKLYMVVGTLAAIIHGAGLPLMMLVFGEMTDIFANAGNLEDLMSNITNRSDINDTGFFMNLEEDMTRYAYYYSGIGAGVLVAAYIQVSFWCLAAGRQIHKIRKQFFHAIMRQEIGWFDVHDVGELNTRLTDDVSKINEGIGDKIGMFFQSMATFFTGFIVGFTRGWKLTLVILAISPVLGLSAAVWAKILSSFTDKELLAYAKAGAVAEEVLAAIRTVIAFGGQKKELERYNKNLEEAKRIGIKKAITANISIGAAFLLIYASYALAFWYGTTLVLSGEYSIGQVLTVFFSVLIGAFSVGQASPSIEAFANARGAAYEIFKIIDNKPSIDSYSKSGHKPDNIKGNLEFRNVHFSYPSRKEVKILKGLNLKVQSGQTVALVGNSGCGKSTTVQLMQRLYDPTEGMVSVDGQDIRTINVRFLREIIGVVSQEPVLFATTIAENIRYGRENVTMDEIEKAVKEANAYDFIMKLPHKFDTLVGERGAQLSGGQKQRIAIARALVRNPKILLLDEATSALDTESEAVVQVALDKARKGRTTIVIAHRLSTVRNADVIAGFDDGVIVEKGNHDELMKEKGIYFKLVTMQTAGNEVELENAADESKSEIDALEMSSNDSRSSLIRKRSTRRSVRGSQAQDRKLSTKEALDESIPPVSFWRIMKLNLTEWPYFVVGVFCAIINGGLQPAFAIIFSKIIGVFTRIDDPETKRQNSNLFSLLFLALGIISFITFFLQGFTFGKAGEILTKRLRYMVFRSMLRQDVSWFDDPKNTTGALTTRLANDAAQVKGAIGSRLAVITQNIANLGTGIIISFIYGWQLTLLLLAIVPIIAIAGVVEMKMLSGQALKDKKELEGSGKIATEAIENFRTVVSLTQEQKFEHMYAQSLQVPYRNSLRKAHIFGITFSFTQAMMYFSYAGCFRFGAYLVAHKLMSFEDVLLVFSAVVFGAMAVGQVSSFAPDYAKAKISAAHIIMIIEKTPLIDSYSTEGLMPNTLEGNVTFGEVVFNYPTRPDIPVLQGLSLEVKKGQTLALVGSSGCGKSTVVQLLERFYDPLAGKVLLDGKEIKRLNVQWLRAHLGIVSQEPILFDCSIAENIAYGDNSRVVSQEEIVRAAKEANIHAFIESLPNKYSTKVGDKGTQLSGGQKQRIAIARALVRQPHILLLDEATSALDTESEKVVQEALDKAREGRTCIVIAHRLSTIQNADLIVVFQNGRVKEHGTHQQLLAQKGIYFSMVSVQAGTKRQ
In words: Flux assay in P-gp overexpressing L-MDR1 cells. Conditions: LLC-PK1, basal to apical. Format: in vitro ADME. As to the method: The substrate properties of a substance for P-gp (ABCB1) were determined by means of a flux assay using LLC-PK1 cells which overexpress P-gp (L-MDR1 cells) [A. H. Schinkel et al., J. Clin. Invest. 96, 1698-1705 (1995)]. For this purpose, the LLC-PK1 cells or L-MDR1 cells were cultured on 96-well filter plates for 3-4 days. For determination of the permeation, the respective test substance, alone or in the presence of an inhibitor (such as Ivermectin or Verapamil, for example), was applied in a HEPES buffer to the cells either apically (A) or basally (B) and incubated for 2 hours. After 0 hours and after 2 hours, samples were taken from the cis and trans compartments. The samples were separated by HPLC using reverse phase columns. The HPLC system was coupled via a Turbo Ion Spray Interface to a Triple Quadropol mass spectrometer API 3000 (Applied Biosystems Applera, Darmstadt, Germany). The permeability was evaluated on the basis of a Papp value which was calculated using the formula published by Schwab et al. [D. Schwab et al., J. Med. Chem. 46, 1716-1725 (2003)].

On to `CC[C@H](C)[C@@H]([C@@H](CC(=O)N1CCC[C@H]1[C@H](OC)[C@@H](C)C(=O)N[C@@H](Cc1c[nH]c2ccccc12)C(N)=O)OC)N(C)C(=O)[C@@H](NC(=O)[C@H](C(C)C)N(C)CCCC(=O)NNC(=O)CCCCCN1C(=O)CC(SC[C@H](N)C(=O)O)C1=O)C(C)C` (stereo partly drawn) [Example 71, N-(4-{2-[6-(3-{[(2R)-2-Amino-2-carboxyethyl]sulphanyl}-2,5-dioxopyrrolidin-1-yl)hexanoyl]hydrazino}-4-oxobutyl)-N-methyl-L-valyl-N-[(3R,4S,5S)-1-{(2S)-2-[(1R,2R)-3-{[(2S)-1-amino-3-(1H-indol-3-yl)-1-oxopropan-2-yl]amino}-1-methoxy-2-methyl-3-oxopropyl]pyrrolidin-1-yl}-3-methoxy-5-methyl-1-oxoheptan-4-yl]-N-methyl-L-valinamide], for which the entries for the “Tubulin polymerization in the presence of toxophore in [%]. Tubulin polymerization rate at 1 μM MMAF set at 100%” value (“Tubulin polymerization in the presence … at 100%” for short) in data set [1] (toxophore 1 μM) and in data set [1] (toxophore 10 μM) were 88% and 25%, respectively. For the same compound, the Papp B→A at 2 h was determined as 0.2 ×10⁻⁶ cm/s in data set [2] and 0.3 ×10⁻⁶ cm/s in data set [3].

`CC[C@H](C)[C@@H]([C@@H](CC(=O)N1CCC[C@H]1[C@H](OC)[C@@H](C)C(=O)N[C@@H](Cc1c[nH]c2ccccc12)C(=O)O)OC)N(C)C(=O)[C@@H](NC(=O)[C@H](C(C)C)N(C)CCCCCC(=O)NCCCC[C@H](N)C(=O)O)C(C)C` [Example 116, N-(6-{[(5S)-5-Amino-5-carboxypentyl]amino}-6-oxohexyl)-N-methyl-L-valyl-N-[(3R,4S,5S)-1-{(2S)-2-[(1R,2R)-3-{[(1S)-1-carboxy-2-(1H-indol-3-yl)ethyl]amino}-1-methoxy-2-methyl-3-oxopropyl]pyrrolidin-1-yl}-3-methoxy-5-methyl-1-oxoheptan-4-yl]-N-methyl-L-valinamide] (X1-V[Dil][Dolaproine]W-OH): the “Tubulin polymerization in the presence … at 100%” value in data set [1] (toxophore 1 μM) stood at 80%; in data set [1] (toxophore 10 μM), 14%. In addition, the Papp B→A at 2 h in data set [2] worked out at 0.1 ×10⁻⁶ cm/s; in data set [3], 0.4 ×10⁻⁶ cm/s.

As for `CC[C@H](C)[C@@H]([C@@H](CC(=O)N1CCC[C@H]1[C@H](OC)[C@@H](C)C(=O)N[C@@]1(C(=O)N2CCCCO2)C[C@@H]1c1ccccc1)OC)N(C)C(=O)[C@@H](NC(=O)[C@H](C(C)C)N(C)CCCC(=O)NNC(=O)CCCCCN1C(=O)CC(SC[C@H](N)C(=O)O)C1=O)C(C)C` (stereo partly drawn) [Example 73, N-(4-{2-[6-(3-{[(2R)-2-Amino-2-carboxyethyl]sulphanyl}-2,5-dioxopyrrolidin-1-yl)hexanoyl]hydrazino}-4-oxobutyl)-N-methyl-L-valyl-N-[(3R,4S,5S)-3-methoxy-1-{(2S)-2-[(1R,2R)-1-methoxy-2-methyl-3-{[(1S,2R)-1-(1,2-oxazinan-2-ylcarbonyl)-2-phenylcyclopropyl]amino}-3-oxopropyl]pyrrolidin-1-yl}-5-methyl-1-oxoheptan-4-yl]-N-methyl-L-valinamide], the “Tubulin polymerization in the presence … at 100%” value in data set [1] (toxophore 1 μM) worked out at 120%. Besides, the Papp B→A at 2 h was determined as 0.25 ×10⁻⁶ cm/s in data set [2] and 0.21 ×10⁻⁶ cm/s in data set [3].

Turning to `CC[C@H](C)[C@@H]([C@@H](CC(=O)N1CCC[C@H]1[C@H](OC)[C@@H](C)C(=O)N[C@@H](Cc1c[nH]c2ccccc12)C(=O)N1CCCCO1)OC)N(C)C(=O)[C@@H](NC(=O)[C@H](C(C)C)N(C)CCCCCCN1C(=O)CC(SC[C@H](N)C(=O)O)C1=O)C(C)C` (stereo partly drawn) [Example 76, N-[6-(3-{[(2R)-2-Amino-2-carboxyethyl]sulphanyl}-2,5-dioxopyrrolidin-1-yl)hexyl]-N-methyl-L-valyl-N-[(3R,4S,5S)-1-{(2S)-2-[(1R,2R)-3-{[(2S)-3-(1H-indol-3-yl)-1-(1,2-oxazinan-2-yl)-1-oxopropan-2-yl]amino}-1-methoxy-2-methyl-3-oxopropyl]pyrrolidin-1-yl}-3-methoxy-5-methyl-1-oxoheptan-4-yl]-N-methyl-L-valinamide] (X2-V[Dil][Dolaproine]W-{Oxazinan2yl(1,2)}), the “Tubulin polymerization in the presence … at 100%” value was found to be 121% in data set [1] (toxophore 1 μM) and 35% in data set [1] (toxophore 10 μM).

As to `CC[C@H](C)[C@@H]([C@@H](CC(=O)N1CCC[C@H]1[C@H](OC)[C@@H](C)C(=O)N[C@@H](Cc1ccccc1)C(=O)NCc1ccccc1)OC)N(C)C(=O)[C@@H](NC(=O)[C@H](C(C)C)N(C)CCCC(=O)NNC(=O)CCCCCN1C(=O)CC(SC[C@H](N)C(=O)O)C1=O)C(C)C` (stereo partly drawn) [Example 78, N-(4-{2-[6-(3-{[(2R)-2-Amino-2-carboxyethyl]sulphanyl}-2,5-dioxopyrrolidin-1-yl)hexanoyl]hydrazino}-4-oxobutyl)-N-methyl-L-valyl-N-[(3R,4S,5S)-1-{(2S)-2-[(1R,2R)-3-{[(2S)-1-(benzylamino)-1-oxo-3-phenylpropan-2-yl]amino}-1-methoxy-2-methyl-3-oxopropyl]pyrrolidin-1-yl}-3-methoxy-5-methyl-1-oxoheptan-4-yl]-N-methyl-L-valinamide], the “Tubulin polymerization in the presence … at 100%” value in data set [1] (toxophore 1 μM) turned out to be 110%.

Turning to `CC[C@H](C)[C@@H]([C@@H](CC(=O)N1CCC[C@H]1[C@H](OC)[C@@H](C)C(=O)N[C@@H](Cc1ccc(O)cc1)C(=O)N1CCCCO1)OC)N(C)C(=O)[C@@H](NC(=O)[C@H](C(C)C)N(C)CCCCCC(=O)NCCCC[C@H](N)C(=O)O)C(C)C` [Example 127, N-(6-{[(5S)-5-Amino-5-carboxypentyl]amino}-6-oxohexyl)-N-methyl-L-valyl-N-[(3R,4S,5S)-1-{(2S)-2-[(1R,2R)-3-{[(2S)-3-(4-hydroxyphenyl)-1-(1,2-oxazinan-2-yl)-1-oxopropan-2-yl]amino}-1-methoxy-2-methyl-3-oxopropyl]pyrrolidin-1-yl}-3-methoxy-5-methyl-1-oxoheptan-4-yl]-N-methyl-L-valinamide trifluoroacetate] (X1-V[Dil][Dolaproine]Y-{Oxazinan2yl(1,2)}), the Papp B→A at 2 h in data set [2] was found to be 0.15 ×10⁻⁶ cm/s.

In turn, `CC[C@H](C)[C@@H]([C@@H](CC(=O)N1CCC[C@H]1[C@H](OC)[C@@H](C)C(=O)N[C@@H](Cc1c[nH]c2ccccc12)C(=O)N1CCCCO1)OC)N(C)C(=O)[C@@H](NC(=O)[C@H]([C@@H](C)O)N(C)CCCCCC(=O)NCCCC[C@H](N)C(=O)O)C(C)C` [Example 126, N-(6-{[(5S)-5-Amino-5-carboxypentyl]amino}-6-oxohexyl)-N-methyl-L-threonyl-N-[(3R,4S,5S)-1-{(2S)-2-[(1R,2R)-3-{[(2S)-3-(1H-indol-3-yl)-1-(1,2-oxazinan-2-yl)-1-oxopropan-2-yl]amino}-1-methoxy-2-methyl-3-oxopropyl]pyrrolidin-1-yl}-3-methoxy-5-methyl-1-oxoheptan-4-yl]-N-methyl-L-valinamide trifluoroacetate] (X4-V[Dil][Dolaproine]W-{Oxazinan2yl(1,2)}) showed a Papp B→A at 2 h in data set [2] of 0.18 ×10⁻⁶ cm/s.

On to `CC[C@H](C)[C@@H]([C@@H](CC(=O)N1CCC[C@H]1[C@H](OC)[C@@H](C)C(=O)N[C@@H](Cc1c[nH]c2ccccc12)C(=O)N1CCCCO1)OC)N(C)C(=O)[C@@H](NC(=O)[C@H](C(C)C)N(C)CCOCCOCCOCCC(=O)NCCCC[C@H](N)C(=O)O)C(C)C` [Example 117, N-[(18S)-[8-Amino-18-carboxy-12-oxo-3,6,9-trioxa-13-azaoctadec-1-yl]-N-methyl-L-valyl-N-[(3R,4S,5S)-1-{(2S)-2-[(1R,2R)-3-{[(2S)-3-(1H-indol-3-yl)-1-(1,2-oxazinan-2-yl)-1-oxopropan-2-yl]amino}-1-methoxy-2-methyl-3-oxopropyl]pyrrolidin-1-yl}-3-methoxy-5-methyl-1-oxoheptan-4-yl]-N-methyl-L-valinamide trifluoroacetate] (X3-V[Dil][Dolaproine]W-{Oxazinan2yl(1,2)}), for which the “Tubulin polymerization in the presence … at 100%” value in data set [1] (toxophore 1 μM) was 60% and 78%.

Broadly, the Papp B→A is how fast a substance crosses the layer from the basolateral side.

The values above are taken from patent US20130066055A1, “NEW BINDER-DRUG CONJUGATES (ADCS) AND USE THEREOF” (Bayer Intellectual Property GmbH, priority 2011, published 2013).
